According to patent US12491170B2, “Stable treprostinil prodrugs” (United Therapeutics Corporation, priority 2020, dated 2025):
Read-outs that look alike come from different tables or passages of the source.

Legend:
[1] = dog
[2] = rat
[3] = Hydrolysis of prodrugs to treprostinil at pH 6, 7, 8 and 40 C; type: physicochemical
Description: Tables 24, 25 and 26 present data for hydrolysis of selected treprostinil prodrugs at pH 6, 7 and 8, respectively, and 40 C.

[4] = Plasma stability, human plasma; type: in vitro ADME
Method: (§1) Studies were carried out in mixed-gender human plasma male Sprague-Dawley rat plasma, and male Beagle dog plasma. All plasma was obtained from Bioreclamation and collected on K2EDTA. Plasma was adjusted to pH 7.4 prior to initiating the experiments. DMSO stocks were first prepared for the test articles. […] The vials were kept in a benchtop Thermomixer® for the duration of the experiment. […] Samples were stored at 4° C. until the end of the experiment. After the final time point was sampled, the plate was mixed and then centrifuged at 3000 rpm for 10 minutes.

[5] = Stability in simulated intestinal fluid; type: in vitro ADME
Method: Studies were carried out in simulated intestinal fluid (SIF). SIF was prepared by dissolving 6.8 g of KH2PO4 in 250 mL of water, mixing, and then adding 77 mL of 0.2 N NaOH and […] of water. […] DMSO stocks were first prepared for the test articles. […] The vials were kept in a benchtop Thermomixer® for the duration of the experiment. A separate tube was dosed for each time point in each matrix. […] Samples were mixed and then immediately stored at 4° C. until the end of the experiment. After the final time point was sampled, the plate was mixed and then centrifuged at 3000 rpm for 10 minutes.

PGE2 receptor 1 (EP1) = target: T1, PGE2 receptor 1 (EP1) (Homo sapiens, UniProt P34995); assay: EP1 receptor calcium agonist assay (HEK293T cells); type: cell-based; design: key to EC50 Fold Different from Treprostinil, EP1 Receptor: NC = too inactive to realistically calculate; details: Table 18; * partial agonists or odd dose-response curves
T1 sequence (P34995 1-402): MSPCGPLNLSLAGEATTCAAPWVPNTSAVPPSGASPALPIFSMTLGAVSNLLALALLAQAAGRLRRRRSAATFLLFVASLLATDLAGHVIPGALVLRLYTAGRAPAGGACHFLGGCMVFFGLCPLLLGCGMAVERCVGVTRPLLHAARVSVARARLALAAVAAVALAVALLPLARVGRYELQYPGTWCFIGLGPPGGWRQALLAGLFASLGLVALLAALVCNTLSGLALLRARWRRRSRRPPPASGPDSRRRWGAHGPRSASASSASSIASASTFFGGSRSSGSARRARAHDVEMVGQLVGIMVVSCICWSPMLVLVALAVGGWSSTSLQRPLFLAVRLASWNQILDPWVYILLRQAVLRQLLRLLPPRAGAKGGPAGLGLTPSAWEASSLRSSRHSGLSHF
How it was run: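 HEK293T cells overexpressing human EP1 were loaded with calcium dye for 1 h at 37° C in HBSS with 20 mM HEPES. Compound was injected at 19 s and fluorescence (ex 490/em 525 nm) was followed for 180 s on FLIPR. EC50 came from variable-slope sigmoidal fits of RFU.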

[6] = Plasma stability, rat plasma; type: in vitro ADME, Sprague-Dawley rat
Method: as §1

[7] = Plasma stability, dog plasma; type: in vitro ADME, Beagle dog
Method: as §1

AUC [1]: 71.85 µmol·min/L
AUC [2]: 38.82 µmol·min/L
Hydrolysis to treprostinil, % Area, t = 1 week ([3]; pH 6, 40 C.): 0.00 % Area
Hydrolysis to treprostinil, % Area, t = 2 weeks ([3]; pH 6, 40 C.): 0.00 % Area
Hydrolysis to treprostinil, % Area, t = 3 weeks ([3]; pH 6, 40 C.): 0.00 % Area
Hydrolysis to treprostinil, % Area, t = 1 week ([3]; pH 7, 40 C.): 0.00 % Area
Hydrolysis to treprostinil, % Area, t = 2 weeks ([3]; pH 7, 40 C.): 0.00 % Area
Hydrolysis to treprostinil, % Area, t = 3 weeks ([3]; pH 7, 40 C.): 0.00 % Area
Hydrolysis to treprostinil, % Area, t = 1 week ([3]; pH 8, 40 C.): 0.00 % Area
Hydrolysis to treprostinil, % Area, t = 2 weeks ([3]; pH 8, 40 C.): 0.00 % Area
Hydrolysis to treprostinil, % Area, t = 3 weeks ([3]; pH 8, 40 C.): 0.00 % Area
Half-life ([4]; 1 μM, 37° C.): >2 h
Percent Remaining 0 min ([4]; 1 μM, 37° C., 0 min): 100%
Percent Remaining 15 min ([4]; 1 μM, 37° C., 15 min): 92.4%
Percent Remaining 30 min ([4]; 1 μM, 37° C., 30 min): 102%
Percent Remaining 60 min ([4]; 1 μM, 37° C., 60 min): 93.3%
Percent Remaining 120 min ([4]; 1 μM, 37° C., 120 min): 103%
Formation of Treprostinil, Concentration 0 min ([4]; prodrug dosed 1 μM, 0 min): 0 µM
Formation of Treprostinil, Concentration 15 min ([4]; prodrug dosed 1 μM, 15 min): 0 µM
Formation of Treprostinil, Concentration 30 min ([4]; prodrug dosed 1 μM, 30 min): 0 µM
Formation of Treprostinil, Concentration 60 min ([4]; prodrug dosed 1 μM, 60 min): 0 µM
Formation of Treprostinil, Concentration 120 min ([4]; prodrug dosed 1 μM, 120 min): 0 µM
Half-life ([5]; SIF pH 6.8 with pancreatin, 1 μM, 37° C.): >2 h
Percent Remaining 0 min ([5]; SIF pH 6.8 with pancreatin, 1 μM, 37° C., 0 min): 100%
Percent Remaining 15 min ([5]; SIF pH 6.8 with pancreatin, 1 μM, 37° C., 15 min): 97.2%
Percent Remaining 30 min ([5]; SIF pH 6.8 with pancreatin, 1 μM, 37° C., 30 min): 104%
Percent Remaining 60 min ([5]; SIF pH 6.8 with pancreatin, 1 μM, 37° C., 60 min): 93.6%
Percent Remaining 120 min ([5]; SIF pH 6.8 with pancreatin, 1 μM, 37° C., 120 min): 86.2%
Formation of Treprostinil, Concentration 0 min ([5]; SIF, prodrug dosed 1 μM, 0 min): 0 µM
Formation of Treprostinil, Concentration 15 min ([5]; SIF, prodrug dosed 1 μM, 15 min): 0 µM
Formation of Treprostinil, Concentration 30 min ([5]; SIF, prodrug dosed 1 μM, 30 min): 0 µM
Formation of Treprostinil, Concentration 60 min ([5]; SIF, prodrug dosed 1 μM, 60 min): 0.00415 µM
Formation of Treprostinil, Concentration 120 min ([5]; SIF, prodrug dosed 1 μM, 120 min): 0.0720 µM
EC50 Fold Different from Treprostinil, EP1 Receptor (PGE2 receptor 1 (EP1)): NC
Half-life ([6]; 1 μM, 37° C.): 1.7 h
Percent Remaining 0 min ([6]; 1 μM, 37° C., 0 min): 100%
Percent Remaining 15 min ([6]; 1 μM, 37° C., 15 min): 98.3%
Percent Remaining 30 min ([6]; 1 μM, 37° C., 30 min): 80.3%
Percent Remaining 60 min ([6]; 1 μM, 37° C., 60 min): 69.3%
Percent Remaining 120 min ([6]; 1 μM, 37° C., 120 min): 45.0%
Formation of Treprostinil, Concentration 0 min ([6]; prodrug dosed 1 μM, 0 min): 0 µM
Formation of Treprostinil, Concentration 15 min ([6]; prodrug dosed 1 μM, 15 min): 0.00392 µM
Formation of Treprostinil, Concentration 30 min ([6]; prodrug dosed 1 μM, 30 min): 0.0101 µM
Formation of Treprostinil, Concentration 60 min ([6]; prodrug dosed 1 μM, 60 min): 0.0331 µM
Formation of Treprostinil, Concentration 120 min ([6]; prodrug dosed 1 μM, 120 min): 0.0768 µM
Half-life ([7]; 1 μM, 37° C.): >2 h
Percent Remaining 0 min ([7]; 1 μM, 37° C., 0 min): 100%
Percent Remaining 15 min ([7]; 1 μM, 37° C., 15 min): 103%
Percent Remaining 30 min ([7]; 1 μM, 37° C., 30 min): 116%
Percent Remaining 60 min ([7]; 1 μM, 37° C., 60 min): 97.4%
Percent Remaining 120 min ([7]; 1 μM, 37° C., 120 min): 91.4%
Formation of Treprostinil, Concentration 0 min ([7]; prodrug dosed 1 μM, 0 min): 0 µM
Formation of Treprostinil, Concentration 15 min ([7]; prodrug dosed 1 μM, 15 min): 0 µM
Formation of Treprostinil, Concentration 30 min ([7]; prodrug dosed 1 μM, 30 min): 0 µM
Formation of Treprostinil, Concentration 60 min ([7]; prodrug dosed 1 μM, 60 min): 0 µM
Formation of Treprostinil, Concentration 120 min ([7]; prodrug dosed 1 μM, 120 min): 0 µM
Structure (SMILES): CCCCCC(CCC1C(OC(=O)CC)CC2Cc3c(cccc3OCC(=O)O)CC21)OC(=O)CC (centres unmarked) [Prodrug LXX, treprostinil dipropionate]
